Species: Cavia porcellus
Assay: Relative contractile potency in guinea pig ileum assay compared to 14,15-dehydro-LTA 4 methyl ester
Format: functional

CCCCCC#CC\C=C/C=C/C=C/[C@@H](SC[C@H](NC(=O)CC[C@H](N)C(=O)O)C(=O)NCC(=O)O)[C@@H](O)CCCC(=O)O
Relative contractile potency: 0.9

From ChEMBL document CHEMBL1130552, “Synthesis and biological evaluation of 14,15-dehydro-LTA4 analog” (1997)
